Results from US20090163523A1, “Combinations comprising a s1p receptor agonist and a jak3 kinase inhibitor” (priority 2004, published 2009).
In brackets after ≈: the same amount, converted by molar mass.

System: donor heart graft
Experiment: Rat heart transplantation, graft survival
Format: in vivo
Conditions: 672 h; rat heart transplant; blood concentration; read-out: EC50 (drug concentration in blood at which 50% of the animals maintain their graft for >28 days)
Procedure: The aorta is ligated and divided distal to the first branch and the brachiocephalic trunk is divided at the first bifurcation. The left pulmonary artery is ligated and divided and the right side divided but left open. All other vessels are dissected free, ligated and divided and the donor heart is removed into iced saline.
The recipient is prepared by dissection and cross-clamping of the infra-renal abdominal aorta and vena cava. The graft is implanted with end-to-side anastomoses, using 10/0 monofilament suture, between the donor brachiocephalic trunk and the recipient aorta and the donor right pulmonary artery to the recipient vena cava. The clamps are removed, the graft tethered retroabdominally, the abdominal contents washed with warm saline and the animal is closed and allowed to recover under a heating lamp. Graft survival is monitored by daily palpation of the beating donor heart through the abdominal wall. Rejection is considered to be complete when heart beat stops.

C[C@@H]1CCN(C(=O)CC#N)C[C@@H]1N(C)c1ncnc2[nH]ccc12 [CP-690,550 mono-citrate, 3-{(3R,4R)-4-methyl-3-[methyl-(7H-pyrrolo[2,3-d]pyrimidin-4-yl)-amino]-piperidin-1-yl}-3-oxo-propionitrile]
EC50: 0.06 µg/mL (≈ 0.192 µM)
